Assay results reported in US20240226066A1, “CARDIOPROTECTION BY AUTOPHAGY INDUCTION AND METABOLIC REPROGRAMMING” (UNIVERSITE PARIS-SACLAY, priority 2021, published 2024).

Key:
Type in all cases: cell-based, rat
[1] = test system: LC3II; assay: LC3 I/II conversion by western blot in RNVCs; settings: 1 μM
Method: FIG. 4E: LC3-I/II protein levels in the RNVCs. Data are presented as mean±SEM with single-factor ANOVA, and multiple Sidak comparisons. *, p<0.05, **, p<0.01 with respect to DMSO.
(§1) The H9C2 cells and RNVCs were detached in LB containing: 50 mM Tris, 150 mM NaCl, 1 mM EDTA, 0.5% deoxycholate, 1% Triton X 100, 0.1% SDS (pH 8.0). The cells were collected and placed on ice for 30 minutes. The cells were then centrifuged at 2000 g for 20 minutes at for 4° C. The supernatant was transferred to a new tube and stored on ice. The protein concentration was determined by BCA assay. The protein samples were diluted with sample buffer (2× Laemmli, Sigma), mixed, and heated for 5 minutes at 95° C. […] The images were recorded with a gel imaging system (Bio Rad). […]
Next, the hypothesis that the compounds could protect cardiac cells by activating autophagy, a catabolic process conserved in evolution that involves the degradation of damaged cytoplasmic components, was formulated. […] Then, the cells were treated with the hits and with H2O2 for 2 hours and their survival was analyzed 4 hours later by measuring LDH release (FIGS. 4B, 4C). […] In order to confirm the induction of autophagy by another approach, the RNVCs were transfected with a GFP-LC3 plasmid and the formation of the autophagosome was monitored 24 hours later. […]

[2] = test system: RNVCs; assay: Mitochondrial ROS production with MitoSOX fluorescent probe; settings: 1 μM, 6 h
Method: FIG. 12: The RNVCs were treated with 0.1% DMSO, 3 μM rapamycin, 1 μM digitoxigenin, 1 μM digoxin, 1 μM minaprin, 1 μM VP331, 1 μM LOPA87, 10 μM SG6163F for 6 h, then the ROS production was stained with the MitoSOX fluorescent probe.
The RNVCs were treated with 0.01% DMSO, 3 μM rapamycin, […], 1 μM digoxin, 1 μM minaprine, 1 μM VP331, 1 μM LOPA87, 10 μM SG6163F in a serum-free cell culture medium for 6 hours. The contents (50 μg) of a MitoSOX™ mitochondrial superoxide indicator vial (ThermoFisher, M36008) were dissolved in 13 μl dimethyl sulfoxide (DMSO) to prepare a 5 mM MitoSOX™ reagent stock solution. Next, the 5 mM MitoSOX™ reagent stock solution in PBS was diluted to prepare a 5 μM working solution of MitoSOX™ reagent. After treatment, the cells were rinsed twice with hot PBS and then incubated with a MitoSOX reagent working solution for 10 minutes at 37° C. The cells were gently rinsed three times with hot PBS. Red fluorescence was detected with a Leica confocal microscope. Nuclear fluorescence was suppressed and mitochondrial fluorescence intensity was measured using ImageJ software.
ROSs are produced or accumulated as a by-product of mitochondrial activity metabolism. Thus, the ROSs may be a consequence of mitochondrial function or may reflect a defect in the mitochondrial antioxidant system.

[3] = test system: BCL-XL; assay: Western blot of BCL-XL expression in RNVCs; settings: 6 h treatment
Method: Levels of protein expression of BCL-2 (FIG. 3A and FIG. 3B) BXL-XL (FIG. 3C) and BAX (FIG. 3C), in the RNVCs after 6 h of treatment (FIG. 3A, FIG. 3C, FIG. 3D) or 24 h (FIG. 3B). Co., untreated cell control. Each experiment was reproduced at least three times. Representative western blotting images and quantification of three independent experiments are presented as mean±SEM with single-factor ANOVA, with multiple Sidak comparisons. *, p<0.05 with respect to DMSO.
as §1

SMILES: O=C1NC(c2ccccc2)=N/C1=C\c1cc2ccccc2c2ccccc12 [SG6163F]
- increase in level of expression of LC3II [1]: > 1.5 fold

SMILES: C[C@]12CC[C@H](O)C[C@H]1CC[C@@H]1[C@@H]2CC[C@]2(C)[C@@H](C3=CC(=O)OC3)CC[C@]12O [digitoxigenin]
- local level of mitochondrial superoxide anion [2]: induced an elevation

SMILES: C[C@H]1O[C@@H](O[C@H]2[C@@H](O)C[C@H](O[C@H]3[C@@H](O)CC(O[C@H]4CC[C@@]5(C)[C@H](CC[C@@H]6[C@@H]5C[C@@H](O)[C@]5(C)[C@@H](C7=CC(=O)OC7)CC[C@]65O)C4)O[C@@H]3C)O[C@@H]2C)C[C@H](O)[C@@H]1O (stereo partly drawn) [digoxin]
- expression of BCL-XL [3]: caused a decrease
